{"source": "patent US10183000B1", "about": "“2, 4-dinitroanilino-benzoic acid: novel insulinotropic agent for the treatment of diabetes” (priority 2017, dated 2019)", "key": {"[1]": {"tested_on": "STZ-induced diabetic rats", "assay": "Dose optimization of anti-diabetic effect in STZ-induced diabetic rats", "format": "in vivo, Wistar rats", "conditions": "25, 50, and 100 mg/kg in STZ-induced diabetic rats", "experimental": "(§1) Diabetes Induction: Prior to induction of diabetes, animals were given a high-fat diet (40% fat content) for two weeks. Diabetes was induced by administrating intraperitoneally a single dose of freshly prepared solution of streptozotocin (45 mg/kg) (Wako, Richmond, USA) in a chilled 0.1 M citrate buffer, pH 4.5. The normal control rats were injected with citrate buffer alone. Fasting blood glucose levels (FBG) were measured after 48 hours, and one week of diabetes induction with a blood glucose analyzer (Accu-Chek®, Roche, Mannheim, Germany). Rats with FBG levels of ≥200 mg/dL were considered diabetic, and randomly divided into diabetic and a compound 1-treated (100 mg/kg) groups. […] This indicated the safety of doses up to 100 mg/kg of body weight."}, "[2]": {"tested_on": "STZ-induced diabetic rats", "assay": "Serum insulin levels by rat insulin ELISA", "format": "in vivo, Wistar rats", "conditions": "100 mg/kg, 8 weeks, vs STZ-induced diabetic group", "experimental": "(§2) Blood glucose levels and body weight of each group were monitored on weekly basis under fasting states. Blood samples were drawn from tail vein to measure the glucose levels by blood glucose analyzer. After 8 weeks of the experiments, rats under 8 hours of fasting states were anaesthetized by phenobarbital sodium (60 mg/kg), and blood samples were collected via cardiopuncture. Serum was stored at −80° C. until measurement of the insulin levels. A part of cryopreserved isolated pancreas was used for the measurement of pancreatic insulin contents. Briefly, pancreas were homogenized in an acid-ethanol solution (75% ethanol, 1.5% HCl, and 23.5% deionized water), and the mixture was kept for 4 hours at 4° C. to extract the insulin. Serum- and isolated pancreatic insulin contents were measured by rat insulin ELISA kit (Amersham Biosciences, N.J., USA)."}, "[3]": {"tested_on": "pancreatic islet in diabetic Wistar rats", "assay": "Islets histopathology (H&E) and insulin immunohistochemistry", "format": "in vivo", "conditions": "100 mg/kg", "experimental": "Procedure: Pancreata isolated from rats were fixed with 3.7% neutral buffered formalin and embedded in paraffin. The 5 μm thick sections (n=6/group) were stained with eosin and hematoxilin, and evaluated for islets histopathology, after performing deparaffinization and dehydration steps. For immunohistochemistry analysis, briefly the antigen was first retrieved by heating for 40 min at 90° C. in 5.0 mM citrate buffer, pH 4.5. Prior to primary antibody treatment, each section was then cooled at room temperature, and incubated with 1× rotti immunoblocking solution (Carl Roth, Karlsruhe, Germany). The sections were immunostained with mouse K36AC10 monoclonal anti-insulin antibody (1:2,000) (Sigma Aldrich, St. Louis, Mo., USA) for 1 hour in a dark humidified chamber at 37° C. The sections were then immunostained with Alexa Fluor 594 donkey anti-mouse IgM secondary antibody (1:200)(Jackson ImmunoResearch, Pa., USA) for 1 hour in a dark chamber at 37° C. for detention. Finally, beta cells nuclei were stained with DAPI (1:5,000) (Sigma Aldrich, St, Louis, Mo., USA). The stained sections were observed under Nikon 90i microscope, equipped with DXM-1200 digital camera (Nikon, Tokyo, Japan)."}, "[4]": {"tested_on": "STZ-induced diabetic rats", "assay": "Fasting blood glucose in STZ-induced diabetic rats, eight weeks of treatment", "format": "in vivo, Wistar rats", "experimental": "Animals: Eight weeks old Wistar rats (n=54; 24 males: 30 females) weighing 160-180 g were used in the study. During the eight weeks of the experiment, animals were kept in the animal house with a controlled temperature (25±2°C.), and 12 hours light/dark cycle. Water and standardized food access were provided at libitum.\nDiabetes Induction: Prior to induction of diabetes, animals were given a high-fat diet (40% fat content) for two weeks. Diabetes was induced by administrating intraperitoneally a single dose of freshly prepared solution of streptozotocin (45 mg/kg) (Wako, Richmond, USA) in a chilled 0.1 M citrate buffer, pH 4.5. The normal control rats were injected with citrate buffer alone. Fasting blood glucose levels (FBG) were measured after 48 hours, and one week of diabetes induction with a blood glucose analyzer (Accu-Chek®, Roche, Mannheim, Germany). […]\nBlood glucose levels and body weight of each group were monitored on weekly basis under fasting states. […] Serum- and isolated pancreatic insulin contents were measured by rat insulin ELISA kit (Amersham Biosciences, N.J., USA).\nStatistical Analysis: All results are expressed as means ±SEM. The significance of differences between groups was determined by using one-way ANOVA, and multiple comparisons were performed by Tukey Alpha, post hoc analysis. […]"}, "[5]": {"tested_on": "STZ-induced diabetic rats", "assay": "Mortality on daily oral administration for eight weeks", "format": "in vivo, Wistar rats", "conditions": "doses up to 100 mg/kg of body weight", "experimental": "as §1"}, "[6]": {"tested_on": "STZ-induced diabetic rats", "assay": "Pancreatic insulin contents by acid-ethanol extraction and rat insulin ELISA", "format": "in vivo, Wistar rats", "conditions": "100 mg/kg, 8 weeks, vs STZ-induced diabetic group", "experimental": "as §2"}, "[7]": {"tested_on": "pancreatic islet in diabetic Wistar rats", "assay": "Quantification of pancreatic islet area and beta-cell number", "format": "in vivo", "conditions": "100 mg/kg, per pancreas section, n=5", "from_the_text": "Procedure: The pancreatic islet area (μ2) and the beta-cell number were quantified from overlapped images of pancreas that was immunostained with insulin and DAPI in all islet sections using NIS-Elements image analysis software AR 3.0. The pancreatic islet area (μ2) and the beta-cell number per section were enumerated by using five sections per pancreas, and five rats from each group."}}, "note": "“Also recorded” adds a separate entry of the source."}
{"smiles": "O=C(O)c1ccccc1Nc1ccc([N+](=O)[O-])cc1[N+](=O)[O-]", "note": "[Compound 1, 2,4-Dinitroanilino-benzoic acid]", "values": [{"measurement": "anti-diabetic effect, dose optimization", "setting": "[1]", "result": "dose dependent anti-diabetic effect was observed with a significant effect at 100 mg/kg"}, {"measurement": "serum insulin levels", "setting": "[2]", "result": "marked increase in serum insulin levels"}, {"measurement": "degenerative changes / islet atrophy (histopathology)", "setting": "[3]; H&E staining, STZ-induced diabetic rats", "result": "markedly attenuated the STZ-induced islet atrophy; also recorded: significantly attenuated"}, {"measurement": "immunofluorescent staining for insulin / residual beta-cell function", "setting": "[3]; anti-insulin immunostaining, vs STZ-induced diabetic group", "result": "increased immunoreactivity for insulin; also recorded: restored the residual beta-cell function"}, {"measurement": "FBG levels (in words)", "setting": "[4]; 100 mg/kg of body weight, long term treatment, vs untreated diabetic group", "result": "significant reduction in FBG levels"}, {"measurement": "FBG", "setting": "[4]; STZ-induced diabetic rats, 100 mg/kg, eight weeks of treatment, mean ± SE, 06 rats, *P<0.05 vs diabetic group", "result": "126 ± 8* mg/dL"}, {"measurement": "mortality", "setting": "[5]", "result": "without significant mortality"}, {"measurement": "pancreatic insulin contents", "setting": "[6]", "result": "increase in pancreatic insulin contents; also recorded: significantly restored"}, {"measurement": "beta-cell number", "setting": "[7]", "result": "significantly restored"}, {"measurement": "islet area", "setting": "[7]", "result": "significantly restored"}]}
